Experimental data from patent EP4700120A1, “NOVEL P[…] DON-DEGRADING ACTIVITY” (CJ Cheiljedang Corporation, priority 2023, dated 2024).

Test system: IPEC-J2 cells
Experiment: Cytotoxicity of DON degradation products, WST assay cell viability
Type: cell-based
Settings: for Cell Viability (%): 24 hours
Method: A DMEM/F-12 medium supplemented with 10% FBS and 1% penicillin-streptomycin was added to a T75 flask, and the IPEC-J2 cell line was subcultured in the flask at 37°C and under 5% CO2. For cytotoxicity evaluation, the cultured cells were seeded in 96-well plates containing DMEM/F-12 with 10% FBS to 3×10^4 cells/100 µL, and the cells were incubated for 24 hour under the above conditions. Thereafter, the existing medium was removed, and the three samples in Table 4 were each applied to the cells so as to final concentrations of 2 µM, 1 µM, and 0.5 µM (based on the substrate concentration before the reaction), followed by additional incubation at 37°C in a CO2 incubator for 24 hours. After incubation, the existing substances were removed, and the cells were washed once with DMEM/F-12 and treated with a WST assay reagent (EZ-Cytox kit, DoGenBio) together with the medium. After 2 hours, absorbance at 450 nm was measured to determine cell viability of IPEC-J2 cells.

## CC1=C[C@H]2O[C@@H]3[C@H](O)C[C@](C)([C@@]2(CO)[C@H](O)C1=O)[C@]31CO1 [DON Control, deoxynivalenol]
IPEC-J2, 0.5 µM to 2 µM
  cell viability: approximately 65%
IPEC-J2, sample concentration 0.5 µM (substrate concentration before the reaction)
  Cell Viability (%): 79.0%
IPEC-J2, sample concentration 1 µM (substrate concentration before the reaction)
  Cell Viability (%): 71.4%
IPEC-J2, sample concentration 2 µM (substrate concentration before the reaction)
  Cell Viability (%): 64.6%
